Patent US8906952B2, “Indole derivative or pharmaceutically acceptable salt thereof, preparation method thereof, and pharmaceutical composition for preventing or treating metabolic diseases containing same as active ingredient” (Korea Research Institute of Bioscience and Biotechnology, priority 2011, dated 2014)

Legend:
HuTu80 cells = test: DGAT activity inhibitory effect in HuTu80 cells (triglyceride production from [14C]oleate); format: cell-based, human; settings: for activity at 10 µM / activity at 0.3 µM / activity at 1 µM / activity at 3 µM / inhibition at 10 µM: Homo sapiens, HuTu80; for activity at 10 µM / activity at 0.3 µM / activity at 1 µM / activity at 3 µM: read-out: Triglyceride Production Rate (% of control)/HuTu80cells; for inhibition at 10 µM / inhibition of biosynthesis of triglycerides (in words): Hutu 80 cells; for inhibition at 10 µM: read-out: inhibitory activity on intracellular biosynthesis of triglycerides
Description: HuTu80 cells were seeded in 24-well culture plate by 2×10^5 cells/well. After 24 hr, the medium was exchanged with FBS-free DMEM and concurrently treated with sample and substrate. For the substrate, 0.5 μCi [^14C]oleate was respectively added and allowed to react for 2 hr. After the reaction, the substrate that was either not absorbed into cells or not used for the reaction were washed with PBS two times, and total fat containing triglyceride was extracted by adding 1 ml extraction solvent (n-hexane/2-propanol=3/2, v/v). The extract was concentrated with nitrogen gas. The total fat after elimination of extraction solvent was dissolved in organic solvent (chloroform/methanol=2/1, v/v), spotted on thin layer chromatography (TLC: silica gel 60F254, 0.5 mm, Merck), and developed on developing solvent (n-hexane/diethyl ether/acetic acid=80/20/1, v/v/v). After isolating triglyceride (R∫ value: 0.4) from TLC, exposing to the film with photosensitivity to energy of radioactive elements (imaging plate's Fujifilm, BAS-MS 2040) for 3 hr, and the radioactive dose of triglyceride was measured by conducting image analysis (FLA 7000).
The remaining cells after the extraction were dissolved in 0.3 ml 0.1N NaOH to measure the protein concentration of the cells used for the reaction. The protein quantification was performed with Lowry method-based, protein quantification kit (Bio-Rad). After seeding protein on 96-well, round bottom culture plate, 25 μl of solution containing 1 ml protein analysis reagent (bio-rad, alkaline copper tartrate solution) and 20 μl protein reagent S (bio-rad, surfactant solution) was seeded per well, to induce reaction between copper ion and protein. After reaction with copper ion, 200 μl reagent B (bio-rad, folin reagent) was seeded per well to allow reduction reaction of the folin reagent to occur. For the amount of protein, the light absorptivity at 750 nm was measured based on the blue coloring of the folin reagent as the reduction occurred, and the concentrations of the protein corresponding to respective light absorptivities were quantified by obtaining standard curves with the standard material as bovine serum albumin (BSA). Using the experiment value, which is obtained by dividing the measured radiation dose of the triglyceride by the protein concentration, the above process was repeated three or more times, and the mean value with ±standard error was obtained, as tabulated below.

HepG2 cells = test: DGAT inhibitory effect in HepG2 cells (triglyceride production from [14C]glycerol); format: cell-based; settings: Homo sapiens; for activity at 10 µM: HepG2, 6 h, DMSO control = 100, read-out: Triglyceride production rate (%)/HepG2 cells at 10 μM; for inhibition at 10 µM: HepG2, 10 μM, read-out: biosynthesis inhibition rate of triglyceride
Description: To investigate inhibition effect on intracellular DGAT enzyme activity of the compounds obtained in Examples 1-51, intracellular DGAT enzyme activity was measured using human-derived liver HepG2 cells.
HepG2 cells were purchased from ATCC, and cultured in 37° C., 5% CO2 incubator including minimum essential medium (2 mM L-glutamine, earle's BSS adjusted to contain 1.5 g/L sodium bicarbonate, 0.1 mM nonessential amino acids, and 1 mM sodium pyruvate) added with 10% fetal bovine serum (FBS) and 1% antibiotic (100 U/ml penicillin and 100 µg/ml streptomycin).
The intracellular DGAT enzyme activity was measured based on an amount of triglycerides produced in the cultured HepG2 cells, by adding 10 μM enzyme inhibitor compounds obtained in Examples 1-51, respectively, and then determining the effect of the enzyme inhibitors according to reduction rate of the triglyceride production.
Specifically, cells were seeded 1×10^6 cell/ml per well of the 24 well culture plate, and 24 hours after incubation, medium was exchanged with FBS-free DMEM medium, and sample of 0.2 mCi [^14C]glycerol (Amersham) was added as substrate, and the reaction was allowed to occur for 6 hr. The induced production of triglyceride was catalyzed by the DGAT enzyme, and DGAT enzyme activity was determined based on the amount of production of triglyceride which was measured based on the amount of radiation. The sample was dissolved in dimethylsulfoxide (DMSO) to be used, and the control group in the triglyceride production reaction was reacted with dimethylsulfoxide only (i.e., without sample), and the amount of the triglyceride production rate was set to 100.
After the reaction completed, the substrate [^14C]glycerol which was either not absorbed into cells or not used for the reaction, were removed with phosphate-buffer-saline (PBS), and 0.5 ml extraction solvent (hexane:isopropanol=3:2, v:v) was added to extract full fat containing triglycerides. With 0.5 ml extraction solvent, extract was obtained two times for 30 min each, and 1 ml of the extract was concentrated with nitrogen gas. After removing the extraction solvent, the total fat was dissolved in organic solvent (chloroform:methanol=2:1) and spotted with thin-layer chromatography (TLC:silica gel 60F254, thickness: 0.5 mm, Merck) on the developing solvent (hexane:diethyl ether:acetic acid=80:20:1, v: v: v). Triglycerides (Rf value: 0.4) were isolated on TLC, and after exposing the TLC plate to the film with photosensitivity to radiation energy (imaging plate' Fujifilm, BMS-MS 2040) for 3 hr, the amount of [^14C] radiation of triglyceride was measured by imaging analysis (FLA 7000). The remaining cells after the extraction were dissolved in 0.3 ml 0.1 N sodium hydroxide for use in the measurement of protein concentration of the cells used for the reaction.
The experimental errors among the respective experimental groups were compensated with the experimental value which was obtained by dividing the measured radiation of triglyceride by protein concentration, and the production rate of triglyceride according to the respective compounds of Examples 1-51 are tabulated below.

C57BL/6J mice = test: Oral lipid tolerance test (OLTT), corn oil load; format: in vivo; settings: for increase of triglyceride concentration: 30 mg/kg; for effect on blood triglyceride concentration (in words): administered to mice
Description: For experiment, 8-week-old male C57BL/6J mice were purchased from Biolink, adapted to environment in bio clean room (Temp. 22±3° C., Humidity 50±10%, Lighting 12 hr interval) for 1 week, and one day before the experiment, fasted for 16 hr. The mice were allowed to freely eat radiation-sterilized solid rodent feed (Harlan, Ind., USA), except for the 16 hr fasting period before the administration of test sample, and were also allowed to freely have a sufficient amount of drinking water which was sterilized in autoclave throughout the test period.
Seven C57BL/6J mice were allocated for solvent control group (V.C., Vehicle Control), and another seven for experimental group (sample group), after which sample was administered as follows.
The normal control group was administered with administration medium (0.5% CMC; carboxy methyl cellulose) only, while the experimental group was orally administered with the compounds of Examples 27 and 49 by 10, 30 mg/kg concentrations, respectively. Before administering the samples to all the animals of the experimental group, the animals were fasted for 16 hr, after which the corresponding sample was orally administered one time, using sonde for oral administration. After 60 min, 6 ml/kg liquid measure of corn oil was orally administered. Blood samples were taken immediately before administration of the corn oil (at 0 hr), and after the corn coil administration, the blood samples were taken directly using heparin-treated capillary tube from retro-orbital sinus at predetermined time (at 2 hr and at 4 hr). The blood samples were centrifuged at 3,000 rpm for 10 min to separate plasma, and the concentration of triglyceride was directly analyzed with automated hematology chemistry analyzer (Hitachi 7150, Japan).

[1] = 10 mg/kg oral, 0 hr (immediately before corn oil)
[2] = 10 mg/kg oral, 2 hr after corn oil
[3] = 10 mg/kg oral, 4 hr after corn oil
[4] = 30 mg/kg oral, 0 hr (immediately before corn oil)
[5] = 30 mg/kg oral, 2 hr after corn oil
[6] = 30 mg/kg oral, 4 hr after corn oil
[7] = after 2 hr of corn oil administration
[8] = after 4 hr of corn oil administration

Compound | activity at 10 µM (HuTu80 cells) | activity at 10 µM (HepG2 cells) | activity at 0.3 µM (HuTu80 cells) | activity at 1 µM (HuTu80 cells) | activity at 3 µM (HuTu80 cells) | inhibition at 10 µM (HuTu80 cells) | inhibition of biosynthesis of triglycerides (in words) (HuTu80 cells) | inhibition at 10 µM (HepG2 cells) | also measured
Cc1ccc(C(=O)NN(C(=O)/C=C/c2cn(C(=O)OC(C)(C)C)c3ccccc23)C(C)C)cc1 [Example 48, (E)-tert-butyl 3-(3-(1-isopropyl-2-(4-methylbenzoyl)hydrazinyl)-3-oxoprop-1-enyl)-1H-indole-1-carboxylate] | 23.9 ± 0.8% | 96.7% | – | – | – | – | – | – | –
Cc1cccc(C(=O)NN(C(=O)/C=C/c2cn(C(=O)OC(C)(C)C)c3ccccc23)C(C)C)c1 [Example 47, (E)-tert-butyl 3-(3-(1-isopropyl-2-(3-methylbenzoyl)hydrazinyl)-3-oxoprop-1-enyl)-1H-indole-1-carboxylate] | 13.7 ± 1.5% | 74.7% | 56.1 ± 0.1% | 30.2 ± 1.2% | 19 ± 5% | 70 to 80% | inhibited biosynthesis of triglycerides in a concentration-dependent manner | 20 to 30% | –
CC(C)N(NC(=O)c1ccc(F)cc1)C(=O)/C=C/c1cn(C(=O)OC(C)(C)C)c2ccccc12 [Example 44, (E)-tert-butyl 3-(3-(2-(4-fluorobenzoyl)-1-isopropylhydrazinyl)-3-oxoprop-1-enyl)-1H-indole-1-carboxylate] | 20 ± 1.2% | 94.8% | 63.9 ± 4.3% | 43.7 ± 0.3% | 29 ± 0.9% | 70 to 80% | inhibited biosynthesis of triglycerides in a concentration-dependent manner | – | –
CC(C)N(NC(=O)c1ccccc1)C(=O)/C=C/c1cn(C(=O)OC(C)(C)C)c2ccccc12 [Example 1, (E)-tert-butyl 3-(3-(2-benzoyl-1-isopropylhydrazinyl)-3-oxoprop-1-enyl)-1H-indole-1-carboxylate] | – | 60.1% | – | – | – | – | – | 30 to 40% | –
CC(C)N(NC(=O)c1ccccc1)C(=O)CCc1cn(Cc2ccccc2)c2ccccc12 [Example 21, N′-(3-(1-benzyl-1H-indol-3-yl)propanoyl)-N′-isopropylbenzohydrazide] | – | 103% | – | – | – | – | – | – | –
CC(C)N(NC(=O)c1ccc(O)cc1)C(=O)/C=C/c1cn(C(=O)OC(C)(C)C)c2ccccc12 [Example 5, (E)-tert-butyl 3-(3-(2-(4-hydroxybenzoyl)-1-isopropylhydrazinyl)-3-oxoprop-1-enyl)-1H-indole-1-carboxylate] | – | 62.2% | – | – | – | – | – | 30 to 40% | –
CC(C)N(NC(=O)c1ccccc1)C(=O)/C=C/c1cn(C)c2ccccc12 [Example 25] | – | 88.6% | – | – | – | – | – | – | –
CC(C)=CCn1cc(/C=C/C(=O)N(NC(=O)c2ccc(F)cc2)C(C)C)c2ccccc21 [Example 49, (E)-4-fluoro-N′-isopropyl-N′-(3-(1-(3-methylbut-2-enyl)-1H-indol-3-yl)acryloyl)benzohydrazide] | 13.1 ± 0.9% | 55.7% | 66.9 ± 3% | 33.4 ± 4.4% | 21.4 ± 0.3% | 70 to 80% | inhibited biosynthesis of triglycerides in a concentration-dependent manner | – | Serum TG (C57BL/6J mice; [1]): 78.8 ± 23.2 mg/dL; Serum TG (C57BL/6J mice; [2]): 90.8 ± 28.2 mg/dL; Serum TG (C57BL/6J mice; [3]): 43.2 ± 12.9 mg/dL; Serum TG (C57BL/6J mice; [4]): 45.8 ± 6.1 mg/dL; Serum TG (C57BL/6J mice; [5]): 86.4 ± 11.1 mg/dL; Serum TG (C57BL/6J mice; [6]): 50.0 ± 11.9 mg/dL; increase of triglyceride concentration (C57BL/6J mice; [7]): ~2.3 fold; increase of triglyceride concentration (C57BL/6J mice; [8]): ~1.8 fold; effect on blood triglyceride concentration (in words) (C57BL/6J mice): superior effect of decreasing blood triglyceride concentration
CC(C)CCn1cc(/C=C/C(=O)N(NC(=O)c2ccc(F)cc2)C(C)C)c2ccccc21 [Example 46, (E)-4-fluoro-N′-(3-(1-isopentyl-1H-indol-3-yl)acryloyl)-N′-isopropylbenzohydrazide] | 20 ± 1.8% | 63.5% | 30 ± 0.3% | 30 ± 1.3% | 20 ± 1.2% | 70 to 80% | inhibited biosynthesis of triglycerides in a concentration-dependent manner | 30 to 40% | –
CC(C)=CCn1cc(/C=C/C(=O)N(NC(=O)c2ccccc2)C(C)C)c2ccccc21 [Example 27, (E)-N′-isopropyl-N′-(3-(1-(3-methylbut-2-enyl)-1H-indol-3-yl)acryloyl)benzohydrazide] | 13.1 ± 0.9% | 58.5% | – | – | – | 70 to 80% | – | – | Serum TG (C57BL/6J mice; [1]): 62.8 ± 20.6 mg/dL; Serum TG (C57BL/6J mice; [2]): 171.0 ± 61.7 mg/dL; Serum TG (C57BL/6J mice; [3]): 83.0 ± 22.8 mg/dL; Serum TG (C57BL/6J mice; [4]): 45.4 ± 7.2 mg/dL; Serum TG (C57BL/6J mice; [5]): 104.2 ± 40.3 mg/dL; Serum TG (C57BL/6J mice; [6]): 79.8 ± 37.3 mg/dL; increase of triglyceride concentration (C57BL/6J mice; [7]): approximately 1.9 fold; increase of triglyceride concentration (C57BL/6J mice; [8]): approximately 1.1 fold; effect on blood triglyceride concentration (in words) (C57BL/6J mice): superior effect of decreasing blood triglyceride concentration
